Measured values published in patent US7432376B2, “Tropane prodrugs with central nervous system activity” (Research Foundation of State University of New York, The, priority 2006, dated 2008).
Where two headings read alike, the source gives them in different places.

Key:
[1] = molecular target: T1, dopamine transport sites (DAT) (Rattus norvegicus, UniProt P23977); test: Displacement of [125I]RTI-55 binding at dopamine transport sites in membranes from rat striatum; set-up: species or system Sprague-Dawley rat
T1 construct: tissue Pel-Freez, Rogers, Ark; host or cells: rat striatum membranes
T1 sequence (P23977 whole entry): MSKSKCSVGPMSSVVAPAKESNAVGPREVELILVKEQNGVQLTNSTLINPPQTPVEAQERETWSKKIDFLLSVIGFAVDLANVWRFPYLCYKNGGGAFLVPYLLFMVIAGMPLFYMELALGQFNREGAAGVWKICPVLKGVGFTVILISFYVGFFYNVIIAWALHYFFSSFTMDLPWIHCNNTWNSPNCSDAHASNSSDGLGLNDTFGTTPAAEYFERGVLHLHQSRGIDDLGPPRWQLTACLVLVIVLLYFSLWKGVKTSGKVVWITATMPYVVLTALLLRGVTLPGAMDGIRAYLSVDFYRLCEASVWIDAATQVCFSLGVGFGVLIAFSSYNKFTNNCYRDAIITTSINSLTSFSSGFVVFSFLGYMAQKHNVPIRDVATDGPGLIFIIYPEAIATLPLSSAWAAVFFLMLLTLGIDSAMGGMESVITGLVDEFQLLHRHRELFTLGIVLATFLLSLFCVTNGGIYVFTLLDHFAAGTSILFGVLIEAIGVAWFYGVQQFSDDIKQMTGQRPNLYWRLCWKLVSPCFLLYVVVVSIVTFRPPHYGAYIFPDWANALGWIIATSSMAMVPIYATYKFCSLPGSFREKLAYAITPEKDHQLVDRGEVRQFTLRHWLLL
Experimental: (§1) Binding of at biogenic amine transporters was determined using striatum and frontal cortex dissected from frozen Sprague-Dawley rat brains (Pel-Freez, Rogers, Ark.). […] Affinities of analogs at 5-HT transport sites were determined by displacement of [^3H]paroxetine binding in membranes from rat frontal cortex, using 50 mg (original wet weight) of membranes and 0.4 nM [^3H]paroxetine. Non-specific binding was determined in the presence of 10 μM fluoxetine. Binding of analogs at norepinephrine transport sites was determined by displacement of [^3H]nisoxetine binding in membranes from rat forebrain, using 0.7 nM [^3H]nisoxetine. Non-specific binding was determined in the presence of 1 μM desipramine.
(§2) Potencies were calculated from displacement curves using 7-10 concentrations of unlabeled analogs, as analyzed by non-linear curve fitting. […] For [^3H]paroxetine and [^3H]nisoxetine binding assays, Ki values were calculated using the Cheng-Prusoff equation.^1 All data are mean values±S.E.M. of at least three separate experiments, each of which was conducted in triplicate.

[2] = molecular target: T2, 5-HT transport sites (SERT) (Rattus norvegicus, UniProt P31652); test: Displacement of [3H]paroxetine binding at 5-HT transport sites in membranes from rat frontal cortex; set-up: species or system Sprague-Dawley rat
T2 construct: tissue Pel-Freez, Rogers, Ark; host or cells: rat frontal cortex membranes
T2 sequence (P31652 whole entry): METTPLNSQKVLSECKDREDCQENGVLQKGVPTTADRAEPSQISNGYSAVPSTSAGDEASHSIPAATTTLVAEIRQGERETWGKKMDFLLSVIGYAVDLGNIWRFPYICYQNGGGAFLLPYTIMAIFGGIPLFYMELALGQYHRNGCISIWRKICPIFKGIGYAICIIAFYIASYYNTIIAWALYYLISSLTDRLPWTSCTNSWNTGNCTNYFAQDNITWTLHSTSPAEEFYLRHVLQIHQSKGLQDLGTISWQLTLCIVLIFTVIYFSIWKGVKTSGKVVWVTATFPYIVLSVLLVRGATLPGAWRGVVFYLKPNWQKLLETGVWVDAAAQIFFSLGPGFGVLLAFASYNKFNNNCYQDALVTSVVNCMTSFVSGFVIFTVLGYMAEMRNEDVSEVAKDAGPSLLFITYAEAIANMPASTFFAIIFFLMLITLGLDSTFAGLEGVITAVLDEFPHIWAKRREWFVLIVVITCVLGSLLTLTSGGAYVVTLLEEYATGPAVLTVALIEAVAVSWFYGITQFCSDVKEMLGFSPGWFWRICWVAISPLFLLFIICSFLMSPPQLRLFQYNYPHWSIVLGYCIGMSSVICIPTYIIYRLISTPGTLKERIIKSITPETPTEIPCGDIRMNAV
Experimental: as §1, §2

CCC(O)C1C(c2ccc(C)cc2)CC2CCC1N2C (stereo not drawn) [Compound 41a]
IC50 [1]: 3.69 nM | Ki [2]: 161 nM

CCC(O)C1C(c2ccc3ccccc3c2)CC2CCC1N2C (stereo not drawn) [Compound 41b]
IC50 [1]: 6.22 nM | Ki [2]: 588 nM

CCC(OC(C)=O)C1C(c2ccc(C)cc2)CC2CCC1N2C (stereo not drawn) [Compound 42a]
IC50 [1]: 87.9 nM | Ki [2]: > 10000 nM

CCC(OC(C)=O)C1C(c2ccc3ccccc3c2)CC2CCC1N2C (stereo not drawn) [Compound 42b]
IC50 [1]: 1.72 nM | Ki [2]: 1.06 nM

CCCCCCCCCCCC(=O)OC(CC)C1C(c2ccc(C)cc2)CC2CCC1N2C (stereo not drawn) [Compound 43a]
IC50 ([1]; rat striatum membranes, 10 pM [125I]RTI-55, mean of at least three experiments, read-out: IC50 DA): 0.891 nM | Ki ([2]; rat frontal cortex membranes, 0.4 nM [3H]paroxetine, Ki by Cheng-Prusoff, mean of at least three experiments, read-out: Ki SERT): 1.91 nM

CCCCCCCCCCCC(=O)OC(CC)C1C(c2ccc3ccccc3c2)CC2CCC1N2C (stereo not drawn) [Compound 43b]
IC50 [1]: 109 nM | Ki [2]: 90.8 nM
